The test system of one assay is Trypanosoma brucei. In words: Trypanosoma brucei 72 hour study. Particulars: for IC50: Trypanosoma brucei, 72 h. The format is functional, organism-based.
Another assay relates to Leishmania donovani. Nature of the assay: Leishmania intramacrophage assay. Type of assay: functional, organism-based. The following applies: for IC50: Leishmania donovani.
Assay [1] in a line: microbe, parasite or virus in culture. Particulars: Mycobacterium tuberculosis, 96 h, read-out: pIC50 (converted).
A short description of assay [2]: microbe, parasite or virus in culture. Particulars: Mycobacterium tuberculosis, 72 h, read-out: pIC50 (converted).
Assay [3] is described as follows: In vitro enzyme assay to detect hydrolysis of chlorophenol red-beta-D-[…] directly proportional to the number of Toxoplasma stably expressing beta-galactosidase. The format is functional, organism-based, Toxoplasma gondii. Particulars: Toxoplasma gondii.
A further assay concerns the target ClpP1P2 (Mycobacterium tuberculosis (strain ATCC 25618 / H37Rv), UniProt P9WPC3+P9WPC5). Nature of the assay: in vitro assay to detect presence of AMC directly proportional to the activity of ClpP1P2. GHDDI collaboration. The format is functional.
In a further assay the test system is Plasmodium falciparum. Nature of the assay: Calibr Malaria Delayed Death Assay SOP. Type of assay: functional, organism-based. Particulars: for IC50: Plasmodium falciparum.

The pIC50 is the IC50 on a negative log10 scale, so that one unit is a factor of ten. The low end stands for a large IC50, the high end for a small IC50.

Where “and” joins values, the source holds several entries; their conditions need not be identical. Identical values can stand only once.

ClpP1P2, sequence (P9WPC5 whole entry): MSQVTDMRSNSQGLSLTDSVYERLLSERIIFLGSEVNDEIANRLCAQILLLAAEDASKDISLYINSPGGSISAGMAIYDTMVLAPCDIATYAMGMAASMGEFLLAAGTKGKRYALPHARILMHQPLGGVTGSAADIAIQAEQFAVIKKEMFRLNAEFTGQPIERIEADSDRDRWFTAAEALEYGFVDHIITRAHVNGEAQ
ClpP1P2, sequence (P9WPC3 whole entry): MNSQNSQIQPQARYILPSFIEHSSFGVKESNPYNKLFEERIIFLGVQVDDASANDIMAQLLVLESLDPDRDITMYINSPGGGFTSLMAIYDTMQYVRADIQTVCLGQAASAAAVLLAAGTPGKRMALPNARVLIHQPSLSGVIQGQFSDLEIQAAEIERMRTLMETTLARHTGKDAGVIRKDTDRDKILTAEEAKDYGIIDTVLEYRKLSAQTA

With `Cc1ccc(CNC2CCN(CCc3ccncc3)CC2)cc1C`, the pIC50 with Trypanosoma brucei is 5.061 and 5.288; in the assay on Leishmania donovani, 4.955. For the same compound, the figures for the IC50 with Trypanosoma brucei and in the assay with Leishmania donovani were 6.7 µM and 15.6 µM, respectively.

Regarding `CCN1CC(CN(C)c2cc(C)nc(N)n2)Oc2ccccc21` (stereo not given), the pIC50 in the assay with Trypanosoma brucei is 4.724 and 4.705; with Leishmania donovani, 4.519. The IC50 is 19.3 µM with Trypanosoma brucei and 35.1 µM in the assay on Leishmania donovani.

Consider `COc1ccc(-c2nc(CN3CCCC(OC)C3)c(C)o2)c(F)c1` (stereo not given), for which, in the assay on Trypanosoma brucei, the negative-log IC50 (pIC50) was 5.649 and 5.647; the IC50 was 2.36 µM. In the assay with Leishmania donovani, this compound gave a pIC50 of 4.638 and an IC50 of 30.9 µM.

As to `CCOC(=O)N1CC2(CCNCC2)c2cc(Cl)ccc21.Cl`, the pIC50 in the assay with Trypanosoma brucei was 4.722 and 4.602; with Leishmania donovani it was 4.68. The IC50 was 20.3 µM in the assay on Trypanosoma brucei and 22.3 µM in the assay with Leishmania donovani.

For `CN1CCN(CC(NCc2cccc(O)c2)c2ccccc2)CC1` (stereo not given), in the assay with Trypanosoma brucei, the pIC50 is 5.312 and 5.375. The IC50 in the assay with Trypanosoma brucei is 4.3 µM; in the assay with Leishmania donovani, 13.7 µM.

With `CN1[C@H]2CC[C@@H]1CN(C(=O)c1ccc(-c3ccccc3)[nH]1)CC2`, in the assay with Trypanosoma brucei, the pIC50 is 4.853 and 4.971; the IC50 is 9.62 µM. Moreover, in the assay with Leishmania donovani, the pIC50 turned out to be 4.659 and the IC50 was 30.6 µM.

For `Cc1sc2nc(CCN)nc(N(C)CCCC3CCCO3)c2c1C` (stereo not given), in the assay with Trypanosoma brucei, the pIC50 is 4.729 and 4.748; the IC50 was 22.5 µM. Besides, the IC50 with Leishmania donovani is more than 50.1 µM.

Turning to `COCC(C)NCc1nc(-c2ccc(C)cc2)c(-c2ccccn2)[nH]1` (stereo not given), the IC50 is more than 50.1 µM in the assay on Trypanosoma brucei and 16 µM in the assay with Leishmania donovani. Also, the pIC50 in the assay on Leishmania donovani is recorded as 4.597.

Regarding `CC(N)C(=O)N1CCC(Oc2cccc(C(F)(F)F)c2)CC1` (stereo not given), in the assay on Trypanosoma brucei, the negative logarithm of the IC50 (pIC50) is 5.074 and 4.999; the IC50 is 13.2 µM. For the same compound, in the assay on Leishmania donovani, the pIC50 was found to be 4.638 and the IC50 is 19.3 µM.

Consider `Cc1[nH]/c(=N\C(=O)c2csc(NC3CC3)n2)sc1C`, for which, in the assay with Trypanosoma brucei, the pIC50 was 5.049 and 4.932; the IC50 was 13.2 µM. In the assay on Leishmania donovani, this compound gave a pIC50 of 4.559 and an IC50 of 47.7 µM.

`Cc1ccc(CNC(CN2CCN(C)CC2)c2ccccc2)cc1C` (stereo not given): in the assay with Trypanosoma brucei, the pIC50 is 5.711 and 5.621; the IC50 is 1.7 µM. In the assay with Leishmania donovani, this compound gave an IC50 of 4.57 µM.

On to `CCCOc1ccccc1CCCNc1ncnc2oc(C)nc12`, for which the results for the IC50 (in assay [1]; with Trypanosoma brucei; in assay [2]) were more than 50.1 µM, 4.09 µM and 25.4 µM, respectively. Also, the pIC50 in the assay with Trypanosoma brucei was 5.583 and 5.61; in the assay with Leishmania donovani, 4.492 and 4.801.

As to `CC(C)N1CCCC(C(=O)N2CCN(c3nsc4ccccc34)CC2)C1` (stereo not given), in the assay with Trypanosoma brucei, the pIC50 was 4.562 and 4.572; the IC50 was 20.3 µM. In the assay with Leishmania donovani, this compound gave a pIC50 of 4.419 and an IC50 of 30.3 µM.

In the case of `CCCc1ccc(C(C)Nc2ncnc3c2CCNC3)cc1` (stereo not given), in the assay with Trypanosoma brucei, the pIC50 was 4.735 and 4.73; the IC50 is 20.2 µM. For the same compound, in the assay with Leishmania donovani, the pIC50 came to 4.733 and the IC50 was 21.6 µM.

Consider `Cc1c(C)c(C)c2[nH]c(-c3cn(C4CCNCC4)nn3)nc2c1C`, for which, in the assay with Trypanosoma brucei, the pIC50 is 5.199 and 5.184; the IC50 was 6.01 µM. Also, in the assay on Leishmania donovani, the pIC50 came out at 4.511 and the IC50 was 19.8 µM.

As to `OC(CNc1nc(C2CCCC2)nc2c1CCNCC2)C(F)(F)F` (stereo not given), in the assay on Trypanosoma brucei, the negative-log IC50 (pIC50) was 5.186 and 5.15; the IC50 is 6.61 µM. For the same compound, in the assay on Leishmania donovani, the pIC50 is 4.72 and 4.703; the IC50 was 18.4 µM.

On to `Cc1[nH]/c(=N\C(=O)c2csc(NCC(C)C)n2)sc1C`, for which the negative logarithm of the IC50 (pIC50) with Trypanosoma brucei was 5.208 and 5.15; with Leishmania donovani, 4.614. The IC50 is 6.25 µM in the assay with Trypanosoma brucei, 19.4 µM in the assay on Leishmania donovani and 4.62 µM in assay [3].

`CCC1CN(C(=O)c2csc3nc(-c4ccc(Cl)cc4)cn23)CCN1` (stereo not given): the IC50 in assay [1] is 49.2 µM; in the assay on Trypanosoma brucei, 7.75 µM; in the assay on Leishmania donovani it was 12.4 µM; in assay [2], 17.9 µM. Besides, the pIC50 is 5.161 and 5.156 in the assay with Trypanosoma brucei; 4.877 in the assay with Leishmania donovani.

As for `COc1ccc2[nH]cc(-c3ccnc(NC4CCCC4)n3)c2c1`, the pIC50 in the assay on Trypanosoma brucei was 5.019 and 4.85; in the assay with Leishmania donovani, 4.561. Besides, the figures for the IC50 (with Trypanosoma brucei; in the assay on Leishmania donovani; in assay [3]) were 14.6 µM, 21.8 µM and 2.65 µM, respectively.

In the case of `O=C(c1cc(-c2ccn(CC3CC3)n2)n2ccccc12)N1CCOCC1`, the IC50 is more than 100 µM at ClpP1P2; more than 50.1 µM in assay [1]; 18.9 µM in the assay with Leishmania donovani; 1.01 µM in the assay with Plasmodium falciparum; 27.8 µM in assay [2]. Also, the pIC50 in the assay with Trypanosoma brucei was 5.586 and 5.592 and 5.253; in the assay on Leishmania donovani, 4.802; in the assay on Plasmodium falciparum, 5.917.

On to `Clc1cccc(C2CCN(c3ncnc4c3CCNC4)C2)c1` (stereo not given), for which the IC50 in assay [1] is 29.6 µM; in the assay on Trypanosoma brucei it was 19.9 µM; in the assay on Leishmania donovani it was 23.9 µM; in assay [2], more than 50.1 µM. Further, the pIC50 in the assay with Trypanosoma brucei is 4.718 and 4.683; in the assay on Leishmania donovani, 4.674.

Consider `COCCN(CC1CC1)c1nc(CCN)nc2sc(C)c(C)c12`, for which, in the assay on Trypanosoma brucei, the pIC50 was 4.814 and 4.866; the IC50 is 16.2 µM. Also, the IC50 with Leishmania donovani is more than 25.1 µM.

Regarding `CC(Nc1ncnc2c1CCNC2)c1ccc2c(c1)CCCC2` (stereo not given), in the assay on Trypanosoma brucei, the pIC50 was 4.894 and 4.867; the IC50 is 8.18 µM. Further, in the assay on Leishmania donovani, the negative logarithm of the IC50 (pIC50) amounted to 4.725 and the IC50 is 25 µM.

With `CCNC(=O)[C@@H]1C[C@@H](N)CN1Cc1ccc(Sc2ccc(C)cc2)o1`, in the assay with Trypanosoma brucei, the pIC50 is 5.166 and 5.161; the IC50 is 6.83 µM. Moreover, in the assay on Leishmania donovani, the pIC50 came to 4.875 and the IC50 is 13.8 µM.

Consider `Cc1nc(C2(O)CCCNCC2)sc1CCOc1ccc(Cl)cc1.Cl` (stereo not given), for which the pIC50 in the assay on Trypanosoma brucei is 5.216 and 5.242; in the assay on Leishmania donovani it was 4.792. Moreover, the IC50 was 5.07 µM with Trypanosoma brucei, 8.46 µM in the assay with Leishmania donovani and 11 µM in assay [3].

`CN(Cc1cccc(O)c1)CC1CCCN(CCc2ccc(Cl)cc2)C1` (stereo not given): the negative-log IC50 (pIC50) in the assay on Trypanosoma brucei is 5.504 and 5.492; in the assay on Leishmania donovani it was 5.277 and 4.854; in the assay with Plasmodium falciparum it was 6.224. For the same compound, the IC50 was 3.82 µM in the assay on Trypanosoma brucei and 0.634 µM with Plasmodium falciparum.

On to `O=C(NCCc1ccn(-c2ccccc2)n1)N1CCC1`, for which, in the assay with Trypanosoma brucei, the pIC50 is 6.164 and 6.213; the IC50 was 0.53 µM.

In the case of `CN(C)c1ccc(-c2cc(C(=O)O)cc(S(=O)(=O)NC3CC3)c2)cc1`, in the assay with Trypanosoma brucei, the pIC50 was 5.904 and 6.15; the IC50 is 0.716 µM.

Regarding `CC(C)(C)C(=O)NCCc1ccn(-c2ccccc2)n1`, in the assay on Trypanosoma brucei, the pIC50 was 5.66 and 5.649; the IC50 is 2.22 µM.

Turning to `Cc1nc(C2(O)CCCNCC2)sc1CCOc1ccccc1F.Cl` (stereo not given), in the assay with Trypanosoma brucei, the pIC50 is 4.648 and 4.682; the IC50 was 21.9 µM.

For the compound `CC(Nc1ncnc2c1CCNC2)c1ccc(C(C)(C)C)cc1` (stereo not given), in the assay with Trypanosoma brucei, the pIC50 was 4.656 and 4.706; the IC50 is 20.6 µM. Further, in the assay on Leishmania donovani, the pIC50 turned out to be 4.856 and the IC50 was 19.6 µM.

Consider `Cc1nc2c(c(NCc3cc4ccccc4s3)n1)CCNCC2`, for which the IC50 is 38 µM in assay [1], 2.29 µM in the assay with Trypanosoma brucei, 5.79 µM in the assay on Leishmania donovani and more than 50.1 µM in assay [2]. In addition, the pIC50 in the assay with Trypanosoma brucei is 5.606 and 5.633; with Leishmania donovani, 5.15.
